A melting point of 178 to 179 °C was found for `Cc1c(NC(=O)c2cc3c(s2)C2CCC3C2)cccc1-c1cn(C)c(=O)c(Nc2ccc(C3C(=O)N(C)CCN3C)cc2)n1` (stereo not shown) [1q, N-(3-(6-(4-(1,4-Dimethyl-3-oxopiperazin-2-yl)phenylamino)-4-methyl-5-oxo-4,5-dihydropyrazin-2-yl)-2-methylphenyl)-4,5,6,7-tetrahydro-4,7-methanobenzo[b]thiophene-2-carboxamide] in this work.
